Reference: patent publication US20250099455A1, “TREATMENT FOR CONGESTIVE HEART FAILURE” (FibroGen, Inc., priority 2022, published 2025)

Tested on: myocardial ischemia-induced heart failure (HFrEF)
Test: Rat model of ischemic HFrEF, Formula I and empagliflozin alone and in combination
Assay type: in vivo
Protocol: • Male Sprague Dawley rats • Ligation of left coronary artery for 30 minutes followed by reperfusion • Post-ligation recovery for 28 days • Cardiac function 28 days after ischemia-reperfusion using a Millar pressure-volume catheter inserted in the left ventricle via the carotid artery • Record pressure-volume loops over several cardiac cycles and derived cardiac function parameters A) Rat Model of Ischemic Heart Failure with Reduced Ejection Fraction (HFrEF)

## OC[C@H]1O[C@@H](c2ccc(Cl)c(Cc3ccc(O[C@H]4CCOC4)cc3)c2)[C@H](O)[C@@H](O)[C@@H]1O [empagliflozin, reference compound]
  improvement in ejection fraction: ~30%
  improvement in end systolic volume: ~30%
